From the supplement of paper PMC10307832

What was measured:
Experiment in all cases: relative viability (nuclei count vs DMSO), 5 days (fraction); higher = more cells survive
PAC-1 + Alpelisib = compound: C=CCc1cccc(/C=N/NC(=O)CN2CCN(Cc3ccccc3)CC2)c1O [PAC-1] + Cc1nc(NC(=O)N2CCC[C@H]2C(N)=O)sc1-c1ccnc(C(C)(C)C(F)(F)F)c1 [Alpelisib] (partner 2 µM)
Summary of the method: (§1)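 Each reported value is a median over duplicate plates. It expresses relative viability: treated-well nuclei count divided by vehicle-well nuclei count. Lung cancer cell lines in 1536-well plates were dosed by pin tool a day after seeding, alone with one drug or with a fixed anchor-drug dose plus five library-drug doses (not always all listed) in √10 steps, and nuclei were counted after 5 days.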

BMX-IN-1 + Navitoclax = compound: C=CC(=O)Nc1cc(-n2c(=O)ccc3cnc4ccc(-c5ccc(NS(C)(=O)=O)cc5)cc4c32)ccc1C [BMX-IN-1] + CC1(C)CCC(c2ccc(Cl)cc2)=C(CN2CCN(c3ccc(C(=O)NS(=O)(=O)c4ccc(N[C@H](CCN5CCOCC5)CSc5ccccc5)c(S(=O)(=O)C(F)(F)F)c4)cc3)CC2)C1 [Navitoclax] (partner 0.5 µM)
Summary of the method: as §1

PAC-1 + Palbociclib = compound: C=CCc1cccc(/C=N/NC(=O)CN2CCN(Cc3ccccc3)CC2)c1O [PAC-1] + CC(=O)c1c(C)c2cnc(Nc3ccc(N4CCNCC4)cn3)nc2n(C2CCCC2)c1=O [Palbociclib] (partner 0.5 µM)
Summary of the method: as §1

PAC-1 + Decitabine = compound: C=CCc1cccc(/C=N/NC(=O)CN2CCN(Cc3ccccc3)CC2)c1O [PAC-1] + Nc1ncn([C@H]2C[C@H](O)[C@@H](CO)O2)c(=O)n1 [Decitabine] (partner 2 µM)
Summary of the method: as §1

BMX-IN-1 + Tozasertib = compound: C=CC(=O)Nc1cc(-n2c(=O)ccc3cnc4ccc(-c5ccc(NS(C)(=O)=O)cc5)cc4c32)ccc1C [BMX-IN-1] + Cc1cc(Nc2cc(N3CCN(C)CC3)nc(Sc3ccc(NC(=O)C4CC4)cc3)n2)n[nH]1 [Tozasertib] (partner 0.1 µM)
Summary of the method: as §1

Cell Line	relative viability (PAC-1 + Alpelisib; first compound 0.02 µM)	relative viability (PAC-1 + Alpelisib; first compound 0.06325 µM)	relative viability (PAC-1 + Alpelisib; first compound 0.2 µM)	relative viability (PAC-1 + Alpelisib; first compound 2 µM)	relative viability (BMX-IN-1 + Navitoclax; first compound 0.02 µM)	relative viability (BMX-IN-1 + Navitoclax; first compound 0.2 µM)	relative viability (BMX-IN-1 + Navitoclax; first compound 0.6325 µM)	relative viability (BMX-IN-1 + Navitoclax; first compound 2 µM)	relative viability (PAC-1 + Palbociclib; first compound 0.02 µM)	relative viability (PAC-1 + Palbociclib; first compound 0.06325 µM)	relative viability (PAC-1 + Palbociclib; first compound 0.2 µM)	relative viability (PAC-1 + Palbociclib; first compound 2 µM)	relative viability (PAC-1 + Decitabine; first compound 0.02 µM)	relative viability (PAC-1 + Decitabine; first compound 0.06325 µM)	relative viability (PAC-1 + Decitabine; first compound 0.2 µM)	relative viability (PAC-1 + Decitabine; first compound 2 µM)	relative viability (BMX-IN-1 + Tozasertib; first compound 0.02 µM)	relative viability (BMX-IN-1 + Tozasertib; first compound 0.2 µM)	relative viability (BMX-IN-1 + Tozasertib; first compound 0.6325 µM)	relative viability (BMX-IN-1 + Tozasertib; first compound 2 µM)
BEN	1.04	1.1	1.09	0.965	0.066	0.0691	0.224	0.0676	0.443	0.489	0.47	0.459	0.644	0.72	0.613	0.642	0.58	0.498	0.52	0.507
CAL-12T	1.13	1.18	1.16	1.37	1.28	1.21	1.22	1.24	0.544	0.52	0.379	0.513					0.345	0.375	0.344	0.297
COR-L23	0.715	0.812	0.693	0.816	1.52	1.46	1.14	1.02	0.33	0.243		0.277	0.487	0.428		0.418	0.186	0.312	0.213	0.212
COR-L 105	0.736	1.22	1.04	1.24	0.756	0.779	0.875	0.709	0.367	0.402	0.379	0.461	0.63	0.71	0.707	0.696	0.388	0.318	0.76	0.358
Calu-6	0.929	1.03	0.931	1.13	1.08	1.06	0.902	0.823												
